Results reported in patent US8481734B2, “Pyrazine derivatives and uses thereof, including in medical imaging and visualization applications” (Medibeacon Development LLC, priority 2008, dated 2013).

Assays:
[1] = Comparison of clearance rates with an iothalamate reference standard (FIG. 3); assay type: in vivo, Spraque-Dawley rats; conditions: Sprague-Dawley rats; iothalamate five rats, compound 18 six rats; FIG. 3 in milliliters per minute
Experimental: FIG. 3 provides a bar graph comparison of the clearance rates of an iothalamate reference standard and compound 18. Spraque-Dawley rats were again used as animal models for studying the clearance rates. Iothalamate clearance rates were measured in five rats, whereas clearance rates for compound 18 were measured in six rats. The clearance rates are expressed in FIG. 3 in terms of milliliters per minute.

[2] = Clearance curve of compound 18 in rats, monitored by fluorescence (RFUs) over time (FIG. 2); assay type: in vivo; conditions: Sprague-Dawley rats, i.v. 1 ml of 2 mmol solution in PBS, approx. 6 μmol/kg, four rats, fluorescence (RFU)
Experimental: Four Sprague-Dawley rats were used to obtain the experimental results depicted in FIG. 2, with each of the four lines of the graph representing data obtained from an individual rat. The rats were injected intravenously with 1 ml of a 2 mmol solution of compound 18 in phosphate-buffered saline CBS), giving a final concentration of compound 18 in each animal of approximately 6 μmol/kg. The presence of compound 18 in each of the animals was monitored over time and measured in Relative Fluorescence Units (RFUs). The clearance curve in FIG. 2 provides RFUs over time for each of the four rats. […] The clearance rate then began to level, with complete clearance of compound 18 occurring at approximately 6000 minutes.

[3] = Excitation and emission wavelengths; assay type: physicochemical
Source text: Compound 18, above, is a longer wavelength compound (excitation ˜500 nm, emission 600 nm orange). To achieve the red shift in both excitation and emission wavelengths, electron donation into the ring was increased by alkyl substitution on the pyrazine ring nitrogens. The synthetic strategy for these longer wavelength analogues involves functionalizing the carboxyls first through amide chemistry described above followed by reductive amination of the pyrazine amino groups. Thus the synthesis of compound 18, above, is presented below. MP-3064 was coupled with Boc-ethylenediamine using the EDC method to afford MP-3183. This material was then converted to MP-3216 by reductive amination using Boc-2-aminoacetaldehyde and sodium triacetoxyborohydride. MP-3216 was purified by flash chromatography and deprotected with TFA to afford the corresponding tetramine salt. This material was then acylated with NHS-m-dPEG12 and purified by HPLC to afford compound 18: […]

| SMILES | clearance rate, compound 18 compared with iothalamate [1] | time of complete clearance [2] | excitation wavelength [3] [nm] | emission wavelength ([3]; orange) [nm] |
| --- | --- | --- | --- | --- |
| CNC(=O)c1c(I)c(NC(C)=O)c(I)c(C(=O)O)c1I [iothalamate, reference compound] | virtually the same | – | – | – |
| COCCOCCOCCOCCOCCOCCOCCOCCOCCOCCOCCOCCC(=O)NCCNC(=O)c1nc(NCCNC(=O)CCOCCOCCOCCOCCOCCOCCOCCOCCOCCOCCOCCOC)c(C(=O)NCCNC(=O)CCOCCOCCOCCOCCOCCOCCOCCOCCOCCOCCOCCOC)nc1NCCNC(=O)CCOCCOCCOCCOCCOCCOCCOCCOCCOCCOCCOCCOC [compound 18, 3,6-Bis(38-oxo-2,5,8,11,14,17,20,23,26,29,32,35-dodecaoxa-39-azahentetracontan-41-ylamino)-N^2,N^5-bis(38-oxo-2,5,8,11,14,17,20,23,26,29,32,35-dodecaoxa-39-azahentetracontan-41-yl)pyrazine-2,5-dicarboxamide] | virtually the same | approximately 6000 minutes | ~500 | 600 |
